# Key:
# [1] = Stability in human liver microsome; type: in vitro ADME; settings: microsomes, pH 4, human liver microsome 0.5 mg/mL, 1 μM, 37° C., NADPH
# Protocol: A mixture of the compound of the invention and human liver microsome in 0.1 M potassium phosphate buffer (containing 1.0 mM EDTA, pH=4) was incubated at 37° C., the sample concentrations at different incubation times were measured, and then the half life of the compound was calculated by plotting “the relative amount of the compound” against “incubation time” by using software GraphPad Prism 5.01, and intrinsic clearance was calculated. The experiment system shown as table 5:
# The sample was analyzed by LC/MS/MS (ESI […] source and waters xbridge C18 EB-A-1420 chromatographic column were adopted), the mobile phases were an aqueous solution with 2 mM ammonium formate and 0.1% formic acid (mobile phase A) and an methanol solution with 2 mM ammonium formate and 0.1% formic acid (mobile phase B), the flow rate was 0.4 mL/min; the column temperature was 40° C. The ratio of the sample peak area to the internal standard peak area was obtained through LC/MS/MS analysis, the content of the compound at 0 time point was as 100%, the relative content of the compound at each time point was calculated. The half life of the compound was calculated by plotting “the relative amount of the compound” against “incubation time”, and intrinsic clearance was calculated.
# The positive control is suvorexant.
# [2] = Pharmacokinetic evaluation after intravenous or gavage administration to rats; type: in vivo, SD rats; settings: rats; for AUC(0-inf): read-out: AUCINF; for AUC(0-t): read-out: AUClast; for Cmax: read-out: Cmax; for MRT inf: read-out: MRTINF; for half-life: read-out: T1/2 (converted)
# Protocol: (§1) The compounds disclosed herein were administered in form of a saline solution containing 5% DMSO, 5% Kolliphor HS 15, 2% (2% HCl) and 88% Saline, or a solution containing 10% DMSO, 10% Kolliphor HS 15 and 80% physiological saline to the subject animals. For intravenous administration, the animals were administered with a dose of 1 mg/kg or 2 mg/kg, and vein blood samples (0.3 mL) were collected at the time points of 0.083, 0.25, 0.5, 1.0, 2.0, 4.0, 6.0, 8.0 and 24 h after drug administration; plasma samples were collected by centrifugation of the vein blood samples at 3000 rpm or 4000 rpm for 10 minutes, and stored at −20° C. or −70° C. For gavage administration, the animals were administered with a dose of 2.5 mg/kg or 5 mg/kg, and vein blood samples (0.3 mL) were collected at the time points of 0.25, 0.5, 1.0, 2.0, 4.0, 6.0, 8.0 and 24 h after drug administration; plasma samples were collected by centrifugation at 3000 rpm or 4000 rpm for 10 minutes, and stored at −20° C. or −70° C. The positive control is suvorexant.
# (§2) The above plasma samples were analyzed by the LC-MS/MS system.
# [3] = target: T1, hERG channel (Homo sapiens, UniProt Q12809); assay: hERG fluorescence polarization assay (potential of inducing QT interval prolongation); type: binding
# T1 construct: purchased Invitrogen
# Protocol: The potential of the compound disclosed herein inducing QT interval prolongation was evaluated by detecting if the compound would block the hERG channel. The specific test method is as follows:
# Precisely weighed compound disclosed herein was dissolved in DMSO to formulate a solution at the highest concentration of 10.0 mM, and then the solution was diluted to a initial concentration of 120.0 μM with hERG FP Assay Buffer (Invitrogen); the hERG Tracer Red stock solution (Invitrogen) and the positive control E-4031 stock solution (Invitrogen) were respectively diluted to initial concentrations of 4.0 nM and 120.0 μM with hERG FP Assay Buffer (Invitrogen). […]
# The above-mentioned solution of the compound disclosed herein and E-4031 at the initial concentration of 120 μM were respectively diluted with hERG FP Assay Buffer 5-fold in series to provide 8 concentration of 120.0 μM, 24.0 μM, 4.8 μM, 960.0 nM, 192.0 nM, 38.4 nM, 7.7 nM and 1.5 nM. […] After that, the 384-well plate was put into an oscillator (PHMP-4, Grant-sio), in 25° C., 250 rpm, to incubate for 4 hours, and the fluorescence polarization values were measured by multi-function microplate reader (PHERAStarFS, BMG LABTECH) and corrected with the minimum and maximum fluorescence polarization values of E-4031, and the IC50 of the compound disclosed herein was calculated by GraphPad software. […]
# [4] = Pharmacokinetic evaluation after intravenous or gavage administration to dogs; type: in vivo, Beagle dogs; settings: dogs; for AUC(0-inf): read-out: AUCINF; for AUC(0-t): read-out: AUClast; for Cmax: read-out: Cmax; for MRT inf: read-out: MRTINF; for half-life: read-out: T1/2 (converted)
# Protocol: as §1, §2
# [5] = beagle, dog, in vivo, iv, 1 mg/kg
# [6] = beagle, dog, in vivo, po, 5 mg/kg
# T1 sequence (Q12809 whole entry): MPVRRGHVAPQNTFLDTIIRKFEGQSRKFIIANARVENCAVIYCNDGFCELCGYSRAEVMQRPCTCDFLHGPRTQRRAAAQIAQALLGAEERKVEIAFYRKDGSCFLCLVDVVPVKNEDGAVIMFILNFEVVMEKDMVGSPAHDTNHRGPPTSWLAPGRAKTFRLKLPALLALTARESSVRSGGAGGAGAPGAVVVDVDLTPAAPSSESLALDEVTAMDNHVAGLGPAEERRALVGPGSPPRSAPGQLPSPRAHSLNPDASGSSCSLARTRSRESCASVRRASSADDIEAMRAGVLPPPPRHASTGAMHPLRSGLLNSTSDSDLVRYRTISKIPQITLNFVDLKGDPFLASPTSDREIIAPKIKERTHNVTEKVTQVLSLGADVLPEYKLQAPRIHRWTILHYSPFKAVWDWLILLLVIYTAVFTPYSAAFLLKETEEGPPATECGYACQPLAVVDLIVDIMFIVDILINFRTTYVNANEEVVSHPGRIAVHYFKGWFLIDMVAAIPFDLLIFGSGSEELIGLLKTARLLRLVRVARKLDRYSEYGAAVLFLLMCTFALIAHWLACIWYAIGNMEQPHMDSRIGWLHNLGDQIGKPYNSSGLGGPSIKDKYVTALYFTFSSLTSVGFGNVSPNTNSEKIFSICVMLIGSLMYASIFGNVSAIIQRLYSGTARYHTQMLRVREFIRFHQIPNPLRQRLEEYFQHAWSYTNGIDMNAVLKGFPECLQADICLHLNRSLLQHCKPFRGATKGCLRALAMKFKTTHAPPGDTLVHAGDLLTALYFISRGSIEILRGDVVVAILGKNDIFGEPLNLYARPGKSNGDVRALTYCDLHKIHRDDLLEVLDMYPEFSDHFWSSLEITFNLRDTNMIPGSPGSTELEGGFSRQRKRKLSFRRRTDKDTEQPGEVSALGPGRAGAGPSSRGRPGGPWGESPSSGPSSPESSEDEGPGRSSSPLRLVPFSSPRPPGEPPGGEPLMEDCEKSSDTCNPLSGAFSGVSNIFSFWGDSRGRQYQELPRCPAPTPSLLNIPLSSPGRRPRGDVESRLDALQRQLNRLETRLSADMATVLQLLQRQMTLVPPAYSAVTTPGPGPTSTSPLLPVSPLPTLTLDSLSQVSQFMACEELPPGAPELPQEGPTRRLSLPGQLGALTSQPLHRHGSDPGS
smiles,measurement,setting,value
"Cc1ccc(-n2nccn2)c(C(=O)N2CCN(c3nc4cc(Cl)ccc4o3)CC[C@H]2C)c1 [suvorexant, reference compound]",half-life at 1 μM,[1]; read-out: Half life,9.85 min
same,CLint scaled at 1 μM,[1]; read-out: intrinsic clearance,176 mL/min/kg
same,AUC(0-inf),"[2]; SD, rat, in vivo, iv, 2 mg/kg",655 ng·h/mL
same,AUC(0-t),"[2]; SD, rat, in vivo, iv, 2 mg/kg",655 ng·h/mL
same,clearance,"[2]; SD, rat, in vivo, iv, 2 mg/kg, read-out: Cl",51.2 mL/min/kg
same,Cmax,"[2]; SD, rat, in vivo, iv, 2 mg/kg",784 ng/mL
same,MRT inf,"[2]; SD, rat, in vivo, iv, 2 mg/kg",0.708 h
same,half-life,"[2]; SD, rat, in vivo, iv, 2 mg/kg",0.569 h
same,Vd,"[2]; SD, rat, in vivo, iv, 2 mg/kg, read-out: Vss",2.17 L/kg
same,AUC(0-inf),"[2]; SD, rat, in vivo, po, 5 mg/kg",530 ng·h/mL
same,AUC(0-t),"[2]; SD, rat, in vivo, po, 5 mg/kg",528 ng·h/mL
same,Cmax,"[2]; SD, rat, in vivo, po, 5 mg/kg",249 ng/mL
same,MRT inf,"[2]; SD, rat, in vivo, po, 5 mg/kg",1.95 h
same,half-life,"[2]; SD, rat, in vivo, po, 5 mg/kg",0.99 h
same,F,"[2]; po, 5 mg/kg",32.4%
same,IC50,[3],1.79 µM
same,AUC(0-inf),[4]; [5],5960 ng·h/mL
same,AUC(0-t),[4]; [5],5750 ng·h/mL
same,clearance,"[4]; beagle, dog, in vivo, iv, 1 mg/kg, read-out: Cl",2.82 mL/min/kg
same,Cmax,[4]; [5],2100 ng/mL
same,MRT inf,[4]; [5],5.39 h
same,half-life,[4]; [5],5.79 h
same,Vd,"[4]; beagle, dog, in vivo, iv, 1 mg/kg, read-out: Vss",0.919 L/kg
same,AUC(0-inf),[4]; [6],14300 ng·h/mL
same,AUC(0-t),[4]; [6],13600 ng·h/mL
same,Cmax,[4]; [6],1640 ng/mL
same,MRT inf,[4]; [6],7.2 h
same,half-life,[4]; [6],5.71 h
same,F,"[4]; po, 5 mg/kg",48%
